Four compounds from ChEMBL document CHEMBL4665754, “Discovery of a coumarin derivative as Nrf2 activator mitigating oxidative stress and fibrosis in mesangial cells under high glucose” (Bioorg Med Chem Lett, 2020) can be followed below.

For data set [1], the system named is Mesangial cell. The experiment in a line: Inhibition of glucose-induced cell proliferation in Mesangial cell (unknown origin) at 10 uM by CCK8 assay. The format is functional, tissue-based. (In general: Formazan colour is commonly taken as a measure of viable cells.)
The target of data set [2] is T1, Keap1/Nrf2 (Homo sapiens) (UniProt Q16236+Q14145). The data set is described as follows: Disruption of interaction between Nrf2/Keap1 (unknown origin) in mesangial cells assessed as reduction in high glucose-induced collagen IV secretion at 10 uM by ELISA. In kind it is cell-based. The settings on record: Mesangial cell. A general note: In an ELISA, binding on a coated surface is turned into a signal by an enzyme label.
T1 sequence (Q14145 whole entry, looked up, one chain of several): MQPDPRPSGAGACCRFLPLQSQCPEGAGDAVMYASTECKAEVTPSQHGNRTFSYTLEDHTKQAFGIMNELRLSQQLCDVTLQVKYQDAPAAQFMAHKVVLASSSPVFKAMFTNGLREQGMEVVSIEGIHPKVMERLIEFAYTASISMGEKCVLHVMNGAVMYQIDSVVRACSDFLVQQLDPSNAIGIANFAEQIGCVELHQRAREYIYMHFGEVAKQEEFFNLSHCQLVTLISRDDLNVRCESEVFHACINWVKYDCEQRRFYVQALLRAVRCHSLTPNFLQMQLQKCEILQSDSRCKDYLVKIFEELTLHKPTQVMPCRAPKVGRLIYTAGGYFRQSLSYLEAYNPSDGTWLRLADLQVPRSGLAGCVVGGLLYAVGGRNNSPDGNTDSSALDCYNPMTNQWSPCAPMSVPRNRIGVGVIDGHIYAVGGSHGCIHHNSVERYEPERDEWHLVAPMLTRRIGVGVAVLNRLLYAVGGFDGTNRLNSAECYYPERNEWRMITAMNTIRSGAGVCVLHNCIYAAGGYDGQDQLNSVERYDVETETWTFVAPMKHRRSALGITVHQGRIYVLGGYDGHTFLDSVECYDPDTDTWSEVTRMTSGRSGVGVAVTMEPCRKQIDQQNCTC

The target in data set [3] is T1, Keap1/Nrf2 (Homo sapiens). The experiment in a line: Disruption of interaction between Nrf2/Keap1 (unknown origin) in mesangial cells assessed as reduction in high glucose-induced intracellular MDA level at 10 uM. In kind it is cell-based. To be noted: Mesangial cell.
Data set [4] can be described thus: Cytotoxicity against Mesangial cell (unknown origin) at 0.01 to 100 uM by CCK8 assay. In kind it is tissue-based. The settings on record: dose 0.01-100 µM.
The target in data set [5] is T1, Keap1/Nrf2 (Homo sapiens). The experiment in a line: Disruption of interaction between Nrf2/Keap1 (unknown origin) in mesangial cells assessed as reduction in high glucose-induced intracellular MDA level at 5 to 10 uM. The format is cell-based. The settings on record: Mesangial cell, dose microM 5-10.
Data set [6] concerns the target T2, Nuclear factor erythroid 2-related factor 2 (Homo sapiens) (UniProt Q16236).
T2 sequence (whole entry): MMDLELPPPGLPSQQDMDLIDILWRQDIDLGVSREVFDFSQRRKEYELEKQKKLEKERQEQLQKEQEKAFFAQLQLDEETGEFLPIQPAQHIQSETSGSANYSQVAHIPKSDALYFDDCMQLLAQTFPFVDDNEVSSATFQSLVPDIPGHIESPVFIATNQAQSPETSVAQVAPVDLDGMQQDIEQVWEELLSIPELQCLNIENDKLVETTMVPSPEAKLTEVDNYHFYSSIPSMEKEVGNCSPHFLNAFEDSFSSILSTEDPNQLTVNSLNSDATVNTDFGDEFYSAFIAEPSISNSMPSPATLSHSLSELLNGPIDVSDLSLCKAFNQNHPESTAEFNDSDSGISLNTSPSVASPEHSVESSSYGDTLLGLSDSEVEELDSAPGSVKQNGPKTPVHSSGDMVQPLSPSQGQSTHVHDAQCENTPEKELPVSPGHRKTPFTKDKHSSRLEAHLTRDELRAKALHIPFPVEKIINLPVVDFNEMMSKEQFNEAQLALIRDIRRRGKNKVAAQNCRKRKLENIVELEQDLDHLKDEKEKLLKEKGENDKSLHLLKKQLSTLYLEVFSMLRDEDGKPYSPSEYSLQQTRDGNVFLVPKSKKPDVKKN
The data set is described as follows: Activation of Nrf2 (unknown origin) in mesangial cell assessed as strong red fluorescence at 5 and 10 uM in presence of high glucose by immunofluorescence staining based assay. The format is tissue-based. To be noted: dose microM 5-10.

The target of data set [7] is T2, Nuclear factor erythroid 2-related factor 2 (Homo sapiens). The data set is described as follows: Activation of Nrf2 (unknown origin) in mesangial cell assessed as increase in transcription ability of Nrf2 binding to ARE by measuring increase luciferase activity at 5 to 10 uM in presence of high glucose by luciferase reporter gene assay. The format is tissue-based. To be noted: dose microM 5-10. Background: Reporter assays use an easily measured gene product as a stand-in for the process of interest.

Data set [8] has the same target. The data set is described as follows: Activation of Nrf2 (unknown origin) in mesangial cell assessed as increase in translocation of Nrf2 into nuclei from cytosol at 5 to 10 uM in presence of high glucose by Western blot based densitometric assay. The format is tissue-based. To be noted: dose microM 5-10.
The target in data set [9] is T1, Keap1/Nrf2 (Homo sapiens). The data set is described as follows: Disruption of interaction between Nrf2/Keap1 (unknown origin) in mesangial cells assessed as reduction in high glucose-induced collagen IV secretion at 5 to 10 uM by ELISA. The format is cell-based. The settings on record: Mesangial cell, dose microM 5-10.
The target in data set [10] is T1, Keap1/Nrf2 (Homo sapiens). The experiment in a line: Disruption of interaction between Nrf2/Keap1 (unknown origin) in mesangial cells assessed as reduction in high glucose-induced intracellular MDA level at 10 uM in presence of 10 uM ML385. The format is cell-based. To be noted: Mesangial cell.
Data set [11] concerns the target T1, Keap1/Nrf2 (Homo sapiens). The experiment in a line: Disruption of interaction between Nrf2/Keap1 (unknown origin) in mesangial cells assessed as reduction in high glucose-induced intracellular ROS production at 10 uM in presence of 10 uM ML385 by DCFH-DA assay. To be noted: Mesangial cell. The format is cell-based.
The target in data set [12] is T1, Keap1/Nrf2 (Homo sapiens). The data set is described as follows: Disruption of interaction between Nrf2/Keap1 (unknown origin) in mesangial cells assessed as reduction in high glucose-induced fibronectin secretion at 5 to 10 uM by ELISA. In kind it is cell-based. To be noted: Mesangial cell, dose microM 5-10.
For data set [13], the target named is T1, Keap1/Nrf2 (Homo sapiens). The data set is described as follows: Disruption of interaction between Nrf2/Keap1 (unknown origin) in mesangial cells assessed as reduction in high glucose-induced collagen IV secretion at 10 uM in presence of 10 uM ML385 by ELISA. In kind it is cell-based. The settings on record: Mesangial cell.
For data set [14], the target named is T1, Keap1/Nrf2 (Homo sapiens). The data set is described as follows: Disruption of interaction between Nrf2/Keap1 (unknown origin) in mesangial cells assessed as reduction in high glucose-induced intracellular ROS production at 5 to 10 uM by DCFH-DA assay. The format is cell-based. To be noted: Mesangial cell, dose microM 5-10.
The target of data set [15] is T1, Keap1/Nrf2 (Homo sapiens). The experiment in a line: Disruption of interaction between Nrf2/Keap1 (unknown origin) in mesangial cells assessed as reduction in high glucose-induced fibronectin secretion at 10 uM in presence of 10 uM ML385 by ELISA. The settings on record: Mesangial cell. The format is cell-based.
Data set [16] deals with T1, Keap1/Nrf2 (Homo sapiens). The experiment in a line: Disruption of interaction between Nrf2/Keap1 (unknown origin) in mesangial cell assessed as decrease in Keap1 immunoprecipitate at 10 uM in presence of high glucose by Co-immunoprecipitation assay. The format is tissue-based.
In data set [17] the target is T1, Keap1/Nrf2 (Homo sapiens). The experiment in a line: Disruption of interaction between Nrf2/Keap1 (unknown origin) in mesangial cell assessed as increase of Nrf2 immunoprecipitate at 10 uM in presence of high glucose by Co-immunoprecipitation assay. The format is tissue-based.
For data set [18], the system named is Mesangial cell. The data set is described as follows: Inhibition of glucose-induced cell proliferation in Mesangial cell (unknown origin) at 5 and 10 uM by CCK8 assay. The settings on record: dose microM 5-10. In kind it is functional, tissue-based.
In data set [19] the target is T2, Nuclear factor erythroid 2-related factor 2 (Homo sapiens). The data set is described as follows: Activation of Nrf2 (unknown origin) in mesangial cell at 5 and 10 uM in presence of high glucose by Western blot based densitometric assay. In kind it is tissue-based. The settings on record: dose microM 5-10.

Calls of active or inactive are those of the source. The rule behind the calls is not given here.

For the compound `O=c1ccc2ccc(Oc3cc4ccc(=O)oc4cc3O)cc2o1`, the inhibition result in data set [1], in data set [2] and in data set [3] was “Active” in each case. In addition, the Activity result in [4] is “Non-Toxic”.
Consider `COc1cc2cc(Oc3ccc4ccc(=O)oc4c3)c(=O)oc2cc1O` [DAPHNORETIN], for which the inhibition entry in data set [1], in data set [2] and in data set [3] was “Active” in each case. Also, the Activity entry in data set [4] was “Non-Toxic”.
Regarding `COc1cc2cc(Oc3ccc4ccc(=O)oc4c3)c(=O)oc2cc1O[C@@H]1O[C@H](CO)[C@@H](O)[C@H](O)[C@H]1O` [DAPHNORIN], the inhibition result in data set [5], in data set [9], in data set [12], in data set [14] and in data set [18] was “Active” throughout. The outcome in [6], in data set [7], in data set [8], in data set [16], in data set [17] and in data set [19] was Active. For the same compound, the inhibition entry in data set [10], in [11], in data set [13] and in data set [15] was “inactive” throughout. The Activity result in data set [4] is “Non-Toxic”.
`O=c1ccc2ccc(Oc3cc4ccc(O)cc4oc3=O)cc2o1` [EDGEWORIN]: the inhibition entry in [1], in [2] and in data set [3] was “Active” in each case. The Activity result in data set [4] is “Non-Toxic”.
